The values below come from US20230167127A1, “COMPOUNDS AND THEIR USE IN THE TREATMENT OF BACTERIAL INFECTION” (Hoffmann-La Roche Inc., priority 2020, published 2023).

Where a name gives a salt, the structure may show the parent alone. Read-outs that look alike come from different tables or passages of the source.

For the test, the system named is Escherichia coli ATCC 25922. Nature of the test: 50% growth inhibitory concentration (IC50) determination, Iso-Sensitest broth dilution. The format is cell-based. Particulars: strain Escherichia coli ATCC 25922, 10-point broth dilution, optical density at 600 nm over 16 h, read-out: Escherichia coli growth inhibition IC50. Summed up:
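Growth was tracked as optical density at 600 nm every 20 minutes for 16 h at 35±2° C. Compounds from DMSO stocks were serially diluted twofold over 10 points (e.g. 50–0.097 μM final) in Iso-Sensitest broth. Inhibition computed in log-phase growth to give IC50.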
In general terms: Broth dilution looks for growth in wells or tubes with falling amounts of substance.

Where [1] appears, read: Escherichia coli, ATCC25922, 16 h.

What is called IC50 is the concentration that gives 50% inhibition. For the molecule `O=C1COc2ccc(N3CC(CCCNC4Cc5ccnc(Cl)c5C4)OC3=O)nc2N1` (stereo not drawn) [Example 92, 6-[5-[3-[(1-chloro-6,7-dihydro-5H-cyclopenta[c]pyridin-6-yl)amino]propyl]-2-oxo-1,3-oxazolidin-3-yl]-4H-pyrido[3,2-b][1,4]oxazin-3-one], the IC50 under setting [1] is 373 nM.

With `O=C1COc2ccc(N3CC(CCNCC4(O)Cc5cccc(Cl)c5C4)OC3=O)nc2N1` (stereo not drawn) [Example 232, 6-[5-[2-[(4-Chloro-2-hydroxy-1,3-dihydroinden-2-yl)methylamino]ethyl]-2-oxo-1,3-oxazolidin-3-yl]-4H-pyrido[3,2-b][1,4]oxazin-3-one; formic acid], the IC50 under setting [1] was 495 nM.

On to `NC1c2cccc(Cl)c2CC1CNCCc1nn(-c2ccc3c(c2)NC(=O)CO3)c(=O)o1` (racemic) [Example 147, 6-[2-oxo-5-[2-[[rac-1,2-trans-1-amino-4-chloro-2,3-dihydro-1H-inden-2-yl]methylamino]ethyl]-1,3,4-oxadiazol-3-yl]-4H-1,4-benzoxazin-3-one; formic acid], for which the IC50 under setting [1] was below 97.7 nM.

`NC1c2cccc(Cl)c2CC1CNCCC1CN(c2cnc3c(c2)NC(=O)CO3)C(=O)O1` (racemic) [Example 135, 7-[2-oxo-5-[2-[[rac-1,2-trans-1-amino-4-chloro-2,3-dihydro-1H-inden-2-yl]methylamino]ethyl]-1,3-oxazolidin-3-yl]-1H-pyrido[2,3-b][1,4]oxazin-2-one; formic acid]: under setting [1], the IC50 amounted to 5800 nM.

For the molecule `O=C1COc2ccc(N3CC(CCNCCC4Cc5cccc(Cl)c5C4)OC3=O)nc2N1` (stereo not drawn) [Example 20, 6-[5-[2-[2-(4-chloro-2,3-dihydro-1H-inden-2-yl)ethylamino]ethyl]-2-oxo-1,3-oxazolidin-3-yl]-4H-pyrido[3,2-b][1,4]oxazin-3-one; formic acid], under setting [1], the IC50 came out at 139 nM.

`N[C@@H]1c2cccc(Cl)c2C[C@H]1CNCC[C@@H]1CN(c2cnc3c(n2)NC(=O)CO3)C(=O)O1` [Example 422, 6-[(5R)-5-[2-[[(1S,2S)-1-Amino-4-chloro-2,3-dihydro-1H-inden-2-yl]methylamino]ethyl]-2-oxo-1,3-oxazolidin-3-yl]-4H-pyrazino[2,3-b][1,4]oxazin-3-one]: under setting [1], the IC50 was below 97.7 nM.

In the case of `Cc1ncc(F)c2c1CC(CN1CCC3(CC1)CN(c1cnc4c(n1)NC(=O)CO4)C(=O)O3)C2` (stereo not drawn) [Example 258, 6-[8-[(4-Fluoro-1-methyl-6,7-dihydro-5H-cyclopenta[c]pyridin-6-yl)methyl]-2-oxo-1-oxa-3,8-diazaspiro[4.5]decan-3-yl]-4H-pyrazino[2,3-b][1,4]oxazin-3-one], the IC50 under setting [1] was found to be 221 nM.

As to `Cc1nc2c(c3c1CC(CNCCC1CN(c4ccc5c(n4)NC(=O)CO5)C(=O)O1)C3)CCN2` (stereo not drawn) [Example 423, 6-[5-[2-[(8-Methyl-5,7-diazatricyclo[7.3.0.0^2.6]dodeca-1,6,8-trien-11-yl)methylamino]ethyl]-2-oxo-1,3-oxazolidin-3-yl]-4H-pyrido[3,2-b][1,4]oxazin-3-one], the IC50 under setting [1] stood at 468 nM.

Regarding `Cc1ncc(F)c2c1CC(CCNCC1CN(c3cnc4c(n3)NC(=O)CO4)C(=O)O1)C2` (stereo not drawn) [Example 265, 6-[5-[[2-(4-Fluoro-1-methyl-6,7-dihydro-5H-cyclopenta[c]pyridin-6-yl)ethylamino]methyl]-2-oxo-1,3-oxazolidin-3-yl]-4H-pyrazino[2,3-b][1,4]oxazin-3-one; formic acid], under setting [1], the IC50 was below 97.7 nM.

Regarding `Cc1cc(OCC2(N)CC2)c(C)c2c1CC(CNCCC1CN(c3cnc4c(n3)NC(=O)CO4)C(=O)O1)C2` (stereo not drawn) [Example 253, 6-[5-[2-[[5-[(1-Aminocyclopropyl)methoxy]-4,7-dimethyl-2,3-dihydro-1H-inden-2-yl]methylamino]ethyl]-2-oxo-1,3-oxazolidin-3-yl]-4H-pyrazino[2,3-b][1,4]oxazin-3-one; formic acid], the half-maximal inhibitory concentration (IC50) under setting [1] was below 97.7 nM.

Consider `O=C1COc2ncc(N3CC(CCNCC4Cc5cc(OCCn6ncnn6)cc(F)c5C4)OC3=O)nc2N1` (stereo not drawn) [Example 348, 6-[5-[2-[[4-fluoro-6-[2-(tetrazol-2-yl)ethoxy]-2,3-dihydro-1H-inden-2-yl]methylamino]ethyl]-2-oxo-1,3-oxazolidin-3-yl]-4H-pyrazino[2,3-b][1,4]oxazin-3-one; formic acid], for which, under setting [1], the IC50 was determined as 317 nM.

As to `CC(C)(N)COc1cc(F)c2c(c1)CC(CN1CCC3(CC1)CN(c1cnc4c(n1)NC(=O)CO4)C(=O)O3)C2` (single isomer, unassigned; enantiomer b) [Example 378, 6-[8-[[6-(2-Amino-2-methylpropoxy)-4-fluoro-2,3-dihydro-1H-inden-2-yl]methyl]-2-oxo-1-oxa-3,8-diazaspiro[4.5]decan-3-yl]-4H-pyrazino[2,3-b][1,4]oxazin-3-one; formic acid, Enantiomer B], the IC50 is below 97.7 nM.

Turning to `O=C1COc2ccc(N3C(=O)OC4CC(NCCC5Cc6cccc(Cl)c6C5)CCC43)nc2N1` (racemic) [Example 32, 6-[rac-3a,7a-trans-6,7a-cis-6-[2-(4-chloro-2,3-dihydro-1H-inden-2-yl)ethylamino]-2-oxo-3a,4,5,6,7,7a-hexahydro-1,3-benzoxazol-3-yl]-4H-pyrido[3.2-b][1,4]oxazin-3-one], under setting [1], the IC50 came to 710 nM.

On to `CC(C)(N)COc1cc(F)c2c(c1)CC(CN1CCC3(CC1)CN(c1cnc4c(n1)NC(=O)CO4)C(=O)O3)C2` (single isomer, unassigned; enantiomer a) [Example 377, 6-[8-[[6-(2-Amino-2-methylpropoxy)-4-fluoro-2,3-dihydro-1H-inden-2-yl]methyl]-2-oxo-1-oxa-3,8-diazaspiro[4.5]decan-3-yl]-4H-pyrazino[2,3-b][1,4]oxazin-3-one; formic acid, Enantiomer A], for which the IC50 under setting [1] was below 97.7 nM.

Turning to `CC(O)COc1cc(F)c2c(c1)CC(CNCCC1CN(c3cnc4c(n3)NC(=O)CO4)C(=O)O1)C2` (stereo not drawn) [Example 351, 6-[5-[2-[[4-Fluoro-6-(2-hydroxypropoxy)-2,3-dihydro-1H-inden-2-yl]methylamino]ethyl]-2-oxo-1,3-oxazolidin-3-yl]-4H-pyrazino[2,3-b][1,4]oxazin-3-one; hydrochloride], the IC50 under setting [1] amounted to 144 nM.

For `CC(C)(CC1CN(c2ccc3c(n2)NC(=O)CO3)C(=O)O1)NCC1Cc2cccc(C#N)c2C1` (stereo not drawn) [Example 29, 2-[[[2-methyl-1-[2-oxo-3-(3-oxo-4H-pyrido[3,2-b][1,4]oxazin-6-yl)-1,3-oxazolidin-5-yl]propan-2-yl]amino]methyl]-2,3-dihydro-1H-indene-4-carbonitrile], under setting [1], the IC50 amounted to 945 nM.

On to `NC1CC(NC2Cc3cccc(F)c3C2)CCC12CN(c1ccc3c(n1)NC(=O)CO3)C(=O)O2` (racemic) [Example 167, 6-[rac-5,6-cis-5,8-trans-6-amino-8-[(4-fluoro-2,3-dihydro-1H-inden-2-yl)amino]-2-oxo-1-oxa-3-azaspiro[4.5]decan-3-yl]-4H-pyrido[3,2-b][1,4]oxazin-3-one; 2,2,2-trifluoroacetic acid], for which, under setting [1], the IC50 amounted to 190 nM.

For the molecule `Cc1nc(Cl)c(F)c2c1CC(CNCCC1CN(c3cnc4c(n3)NC(=O)CO4)C(=O)O1)C2` (stereo not drawn) [Example 398, 6-[5-[2-[(3-chloro-4-fluoro-1-methyl-6,7-dihydro-5H-cyclopenta[c]pyridin-6-yl)methylamino]ethyl]-2-oxo-1,3-oxazolidin-3-yl]-4H-pyrazino[2,3-b][1,4]oxazin-3-one], the IC50 under setting [1] was below 97.7 nM.

Consider `CC(N)COc1cc(F)c2c(c1)CC(CCN1CC3(C1)CN(c1cnc4c(n1)NC(=O)CO4)C(=O)O3)C2` (stereo not drawn) [Example 327, 6-[2-[2-[6-(2-aminopropoxy)-4-fluoro-2,3-dihydro-1H-inden-2-yl]ethyl]-6-oxo-5-oxa-2,7-diazaspiro[3.4]octan-7-yl]-4H-pyrazino[2,3-b][1,4]oxazin-3-one], for which, under setting [1], the IC50 is below 97.7 nM.

For `COc1nc(C)c2c(c1C)CC(CNCCC1CN(c3ccc4c(n3)NC(=O)CO4)C(=O)O1)C2` (stereo not drawn) [Example 106, 6-[5-[2-[(3-methoxy-1,4-dimethyl-6,7-dihydro-5H-cyclopenta[c]pyridin-6-yl)methylamino]ethyl]-2-oxo-1,3-oxazolidin-3-yl]-4H-pyrido[3,2-b][1,4]oxazin-3-one], the IC50 under setting [1] amounted to 259 nM.

On to `NCCOc1cc(Cl)c2c(c1)CC(CNCCC1CN(c3ccc4c(n3)NC(=O)CO4)C(=O)O1)C2` (stereo not drawn) [Example 177, 6-[5-[2-[[6-(2-aminoethoxy)-4-chloro-2,3-dihydro-1H-inden-2-yl]methylamino]ethyl]-2-oxo-1,3-oxazolidin-3-yl]-4H-pyrido[3,2-b][1,4]oxazin-3-one], for which the IC50 under setting [1] was below 97.7 nM.

Regarding `N#Cc1cccc2c1CC(CNC1CCC3C(C1)OC(=O)N3c1ccc3c(n1)NC(=O)CO3)C2` (racemic) [Example 31, 2-[[[rac-3a,7a-trans-6,7a-cis-2-oxo-3-(3-oxo-4H-pyrido[3,2-b][1,4]oxazin-6-yl)-3a,4,5,6,7,7a-hexahydro-1,3-benzoxazol-6-yl]amino]methyl]-2,3-dihydro-1H-indene-4-carbonitrile], the IC50 was 156 nM.

As for `Cc1nc(OCCN)c(C)c2c1CC(CNCCC1CN(c3ccc4c(n3)NC(=O)CO4)C(=O)O1)C2` (stereo not drawn) [Example 171, 6-[5-[2-[[3-(2-aminoethoxy)-1,4-dimethyl-6,7-dihydro-5H-cyclopenta[c]pyridin-6-yl]methylamino]ethyl]-2-oxo-1,3-oxazolidin-3-yl]-4H-pyrido[3,2-b][1,4]oxazin-3-one], the IC50 under setting [1] was 178 nM.

For the molecule `Cc1nc(OCCN)cc2c1CC(CNCCC1CN(c3ccc4c(n3)NC(=O)CO4)C(=O)O1)C2` (stereo not drawn) [Example 209, 6-[5-[2-[[3-(2-aminoethoxy)-1-methyl-6,7-dihydro-5H-cyclopenta[c]pyridin-6-yl]methylamino]ethyl]-2-oxo-1,3-oxazolidin-3-yl]-4H-pyrido[3,2-b][1,4]oxazin-3-one], the IC50 under setting [1] was 845 nM.
